# Assay results published in patent US10517889B2, “Modulators of SMAD7 expression” (Ionis Pharmaceuticals, Inc., priority 2017, dated 2019).
# Strand notation (5' to 3'): a small letter for the sugar, then the base; units joined by * are phosphorothioate-linked, units joined directly phosphodiester-linked; [ ] holds rarer units or linkages, { } end groups; capitals alone tell only the bases. k = constrained ethyl (cEt); [5mC] = 5-methylcytosine; d = 2'-deoxy (DNA)
# System: human SMAD7 mRNA
# Assay: Antisense inhibition of human SMAD7 mRNA expression in Hep3B cells by 3-10-3 cEt gapmers, 10,000 nM, electroporation (Example 2)
# Assay type: cell-based
# Details: Hep3B cells, 10,000 nM antisense oligonucleotide, electroporation, approximately 24 hours, RT-PCR primer probe set RTS5062, relative to untreated control cells
# Outline: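 qRT-PCR (RTS5062) of SMAD7 mRNA, normalised to RIBOGREEN total RNA, gave percent inhibition relative to untreated controls. Hep3B cells at 20,000 per well received 10,000 nM oligonucleotide by electroporation, with ~24 h treatment.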
row,Substance,% Inhibition [%]
1,800096 (antisense kT*kG*kG*dA*dG*dT*dT*dA*d[5mC]*dA*dG*dA*dT*k[5mC]*kT*kT) [compound 800096],32
2,800029 (k[5mC]*k[5mC]*kT*dG*dA*dA*dT*d[5mC]*dG*dG*dG*d[5mC]*d[5mC]*k[5mC]*kA*k[5mC]; antisense) [compound 800029],0
3,799879 (kT*kG*kG*dA*dA*dA*dA*dG*d[5mC]*dT*d[5mC]*d[5mC]*dT*kT*k[5mC]*kT; antisense) [compound 799879],3
4,800072 (antisense kG*kA*k[5mC]*dT*dT*dG*dG*dG*dA*d[5mC]*d[5mC]*dA*dT*kA*kA*kA) [compound 800072],0
5,799898 (antisense kG*kT*k[5mC]*dT*d[5mC]*dT*dT*dA*d[5mC]*d[5mC]*dT*d[5mC]*dA*k[5mC]*k[5mC]*k[5mC]) [compound 799898],37
6,798836 (kG*kT*k[5mC]*d[5mC]*dG*dA*dG*dG*d[5mC]*dA*dA*dA*dA*kG*k[5mC]*k[5mC]; antisense) [compound 798836],56
7,800090 (antisense k[5mC]*kA*k[5mC]*d[5mC]*dT*dA*dT*dG*d[5mC]*dG*dA*dT*dG*kG*kT*k[5mC]) [compound 800090],0
8,799935 (antisense kA*kG*kA*dA*dA*dT*dG*dA*d[5mC]*dT*dT*dT*dT*kT*kA*k[5mC]) [compound 799935],42

# Same assay, conditions: Hep3B cells, electroporation with 10,000 nM antisense oligonucleotide, approximately 24 hours, RTS5062, percent inhibition of SMAD7 mRNA relative to untreated control cells
row,Substance,% Inhibition [%]
1,799644 (kT*kT*k[5mC]*d[5mC]*dA*dA*d[5mC]*dA*d[5mC]*dA*dT*dG*d[5mC]*kT*k[5mC]*kT; antisense) [compound 799644],31
2,799290 (antisense kG*kA*kT*dT*dA*dT*dT*dA*dA*dT*dG*dG*dT*k[5mC]*kT*kG) [compound 799290],16

# Same assay, conditions: Hep3B cells, electroporation with 10,000 nM antisense oligonucleotide, approximately 24 hours, SMAD7 mRNA by RT-PCR (RTS5062), relative to untreated control cells
row,Substance,% Inhibition [%]
1,830116 (k[5mC]*kA*k[5mC]*d[5mC]*d[5mC]*dT*dA*dA*dA*d[5mC]*dT*dG*dA*kG*k[5mC]*k[5mC]; antisense) [compound 830116],11
2,830194 (antisense k[5mC]*k[5mC]*kT*dT*dT*dT*d[5mC]*d[5mC]*dG*dG*dT*dA*dT*kT*kT*kT) [compound 830194],49
3,799890 (antisense k[5mC]*kA*kT*dT*dA*dA*dG*d[5mC]*d[5mC]*dA*dA*dT*dT*kT*kT*k[5mC]) [compound 799890],41
4,830063 (kT*k[5mC]*k[5mC]*d[5mC]*dT*dA*d[5mC]*d[5mC]*dA*d[5mC]*d[5mC]*d[5mC]*d[5mC]*kT*kG*kT; antisense) [compound 830063],37
5,799453 (antisense kA*k[5mC]*kA*d[5mC]*dA*dG*d[5mC]*dA*d[5mC]*dT*dG*d[5mC]*d[5mC]*kA*kG*kG) [compound 799453],58
6,799906 (antisense k[5mC]*kA*kT*dG*d[5mC]*dA*dG*dT*d[5mC]*dG*dA*dA*dT*k[5mC]*kA*kT) [compound 799906],11
7,800024 (k[5mC]*kA*kA*dG*dG*dA*d[5mC]*dT*dA*dA*dG*dG*dA*kA*kG*kA; antisense) [compound 800024],18
8,798770 (kA*kG*kG*dA*dA*dT*dG*d[5mC]*d[5mC]*dT*dG*dA*dG*kA*kT*k[5mC]; antisense) [compound 798770],47
9,798719 (antisense kA*kG*k[5mC]*dA*dT*d[5mC]*d[5mC]*dA*dG*d[5mC]*d[5mC]*d[5mC]*dT*kG*k[5mC]*k[5mC]) [compound 798719],34
10,830058 (kG*kG*kT*dA*dG*dG*d[5mC]*dA*d[5mC]*dA*dT*d[5mC]*dA*kT*k[5mC]*kA; antisense) [compound 830058],22
11,798864 (kG*kT*k[5mC]*d[5mC]*dG*dG*dG*dT*dT*dG*dT*d[5mC]*d[5mC]*kA*kG*kT; antisense) [compound 798864],33
12,830056 (kG*kT*kT*dT*dT*dG*dG*dG*dT*dG*dA*dG*dT*kA*kA*k[5mC]; antisense) [compound 830056],40
13,799261 (antisense kT*kT*kT*dG*d[5mC]*d[5mC]*d[5mC]*d[5mC]*dA*dA*dA*dA*d[5mC]*kT*k[5mC]*k[5mC]) [compound 799261],52

# Same assay, conditions: Hep3B cells, electroporation with 10,000 nM antisense oligonucleotide, approximately 24 hours, primer probe set RTS5062, relative to untreated control cells
Substance,% inhibition of SMAD7 mRNA expression [%],% Inhibition [%]
798656 (k[5mC]*kG*k[5mC]*dG*dG*d[5mC]*d[5mC]*d[5mC]*dG*d[5mC]*dG*d[5mC]*d[5mC]*k[5mC]*kT*kG; antisense) [compound 798656],10,
799033 (k[5mC]*k[5mC]*k[5mC]*dA*dG*dG*dT*dA*d[5mC]*dT*dG*d[5mC]*d[5mC]*kT*k[5mC]*kT; antisense) [compound 799033],,35
799416 (antisense kA*kA*kG*dA*d[5mC]*d[5mC]*dT*dG*dG*dG*dT*d[5mC]*dA*kG*k[5mC]*kG) [compound 799416],41,
799164 (antisense kT*k[5mC]*kG*dA*dA*dG*dT*dA*dT*d[5mC]*dA*dT*dA*k[5mC]*kG*kA) [compound 799164],37,
798951 (antisense kT*k[5mC]*kT*d[5mC]*dA*dA*dA*dG*dA*dG*d[5mC]*dG*dA*kA*kA*k[5mC]) [compound 798951],37,
799220 (kA*kA*kT*dT*dT*dG*dG*d[5mC]*dA*dT*dT*dT*dG*kT*kT*kA; antisense) [compound 799220],,0
799085 (antisense kG*k[5mC]*k[5mC]*d[5mC]*dT*dT*dG*dG*dG*dA*dA*dG*d[5mC]*k[5mC]*k[5mC]*kA) [compound 799085],10,
799178 (antisense kA*kG*k[5mC]*dT*dT*dA*dT*dG*dT*dT*dA*dA*dA*kG*kT*k[5mC]) [compound 799178],,34
799165 (antisense kG*kT*kG*dT*d[5mC]*dG*dA*dA*dG*dT*dA*dT*d[5mC]*kA*kT*kA) [compound 799165],42,
799417 (antisense kG*kG*k[5mC]*d[5mC]*dA*dA*dA*d[5mC]*dA*dT*dT*d[5mC]*dT*k[5mC]*k[5mC]*k[5mC]) [compound 799417],26,
799403 (antisense kG*k[5mC]*kT*dA*dA*dG*dG*dT*d[5mC]*dA*d[5mC]*dT*dG*kT*kT*k[5mC]) [compound 799403],0,
799385 (antisense kT*kG*k[5mC]*d[5mC]*d[5mC]*dA*dA*d[5mC]*d[5mC]*d[5mC]*dT*dT*d[5mC]*kA*k[5mC]*kT) [compound 799385],31,

# Same assay, conditions: Hep3B cells, electroporation, 10,000 nM antisense oligonucleotide, approximately 24 hours, RTS5062, relative to untreated control cells
row,Substance,% inhibition of SMAD7 mRNA expression [%]
1,799557 (kA*kG*k[5mC]*d[5mC]*dA*dG*dT*dT*d[5mC]*dT*dT*dA*dG*kA*kA*kA; antisense) [compound 799557],28
2,799320 (antisense kG*kT*k[5mC]*dT*dG*d[5mC]*dT*dG*dT*dG*dG*dA*dT*kT*kT*kG) [compound 799320],0
3,799302 (antisense kA*kA*kA*d[5mC]*d[5mC]*dA*d[5mC]*dA*d[5mC]*dA*dT*dT*d[5mC]*k[5mC]*kA*kA) [compound 799302],39
4,799632 (k[5mC]*kT*kG*d[5mC]*d[5mC]*dA*dA*dA*dT*d[5mC]*dA*d[5mC]*dA*kA*kA*kG; antisense) [compound 799632],48
5,799621 (kT*kT*kT*d[5mC]*dA*d[5mC]*dT*dG*d[5mC]*dA*dA*dG*dT*k[5mC]*k[5mC]*k[5mC]; antisense) [compound 799621],49
6,799595 (k[5mC]*kT*k[5mC]*dT*dG*dA*dA*d[5mC]*dG*dG*dA*dA*dA*kG*kA*kA; antisense) [compound 799595],35

# Same assay, conditions: Hep3B cells, electroporation, 10,000 nM, approximately 24 hours; 3-10-3 cEt gapmers targeting SEQ ID NO: 3 and 4
row,Substance,% inhibition of SMAD7 mRNA expression [%]
1,790635 (kG*kG*kA*d[5mC]*dA*dG*dT*d[5mC]*dA*dG*dT*dT*dG*kG*kT*kT; antisense) [compound 790635],40

# Same assay, conditions: SMAD7 mRNA, Hep3B cells, 10,000 nM antisense oligonucleotide, electroporation, approximately 24 hours, primer probe set RTS5062, relative to untreated control cells
row,Substance,% Inhibition [%]
1,829747 (antisense kT*k[5mC]*kG*d[5mC]*d[5mC]*dG*d[5mC]*d[5mC]*dG*dG*dG*d[5mC]*dG*k[5mC]*kA*k[5mC]) [compound 829747],16
2,829778 (antisense kG*kG*kA*dG*d[5mC]*dG*dA*dG*dT*dA*dG*dG*dA*k[5mC]*kG*kA) [compound 829778],46
3,772808 (k[5mC]*k[5mC]*k[5mC]*d[5mC]*dA*dT*dT*d[5mC]*dA*dT*dT*dA*dA*kG*k[5mC]*k[5mC]; antisense) [compound 772808],34
4,829738 (antisense kT*kA*kA*dG*dG*dA*dG*d[5mC]*dG*dA*dA*d[5mC]*dA*kT*kG*kA) [compound 829738],49
5,772738 (kA*k[5mC]*k[5mC]*dA*dG*dT*dT*dG*dG*dT*dT*dT*dG*kA*kG*kA; antisense) [compound 772738],16
6,829749 (antisense kT*k[5mC]*k[5mC]*dT*d[5mC]*dG*d[5mC]*d[5mC]*dG*d[5mC]*d[5mC]*dG*dG*kG*k[5mC]*kG) [compound 829749],26
7,772540 (antisense kA*kG*kG*d[5mC]*dG*dA*dG*dG*dA*dG*dA*dA*dA*kA*kG*kT) [compound 772540],10
